{"source": "ChEMBL document CHEMBL3046662", "about": "“Hypoglycemic and insulin mimetic impact of catechin isolated from Cassia fistula: a substantiate in silico approach through docking analysis” (Med Chem Res, 2012)", "test_system": "Rattus norvegicus", "assay": "Hypoglycemic activity in Rattus norvegicus albino Wistar (rat) streptozotocin-induced diabetic model assessed as reduction of plasma glucose level at 20 mg/kg, po qd for 60 days measured up to 180 min by oral glucose tolerance test", "format": "functional, organism-based", "set-up": "dose 20 mg/kg", "note": "Activity calls are given as the source filed them. The calls are words filed in the database; no cut-off is given here.", "data": [{"smiles": "Oc1cc(O)c2c(c1)OC(c1ccc(O)c(O)c1)C(O)C2", "note": "(stereo unspecified)", "values": [{"measurement": "Activity", "result": "Active"}]}]}
